# Test results: US9718828B2 (MERCK SHARP & DOHME CORP., priority 2011, dated 2017)
# Where a name gives a salt, the structure may show the parent alone.
# Target: hBTK (full-length BTK, 6HIS-tag cleaved) (Homo sapiens (Human), UniProt Q06187)
# Experiment: BTK enzymatic activity, LANCE TR-FRET assay (Assay Method C)
# Assay type: biochemical
# Conditions: LANCE TR-FRET, 50 pM hBTK, 25 μM ATP; class 100-1000 is given as ≧100 nM-<1 μM; read-out: IC50 Btk activity values - Assay Method C
# Chain of hBTK (full-length BTK, 6HIS-tag cleaved) (Q06187 whole entry): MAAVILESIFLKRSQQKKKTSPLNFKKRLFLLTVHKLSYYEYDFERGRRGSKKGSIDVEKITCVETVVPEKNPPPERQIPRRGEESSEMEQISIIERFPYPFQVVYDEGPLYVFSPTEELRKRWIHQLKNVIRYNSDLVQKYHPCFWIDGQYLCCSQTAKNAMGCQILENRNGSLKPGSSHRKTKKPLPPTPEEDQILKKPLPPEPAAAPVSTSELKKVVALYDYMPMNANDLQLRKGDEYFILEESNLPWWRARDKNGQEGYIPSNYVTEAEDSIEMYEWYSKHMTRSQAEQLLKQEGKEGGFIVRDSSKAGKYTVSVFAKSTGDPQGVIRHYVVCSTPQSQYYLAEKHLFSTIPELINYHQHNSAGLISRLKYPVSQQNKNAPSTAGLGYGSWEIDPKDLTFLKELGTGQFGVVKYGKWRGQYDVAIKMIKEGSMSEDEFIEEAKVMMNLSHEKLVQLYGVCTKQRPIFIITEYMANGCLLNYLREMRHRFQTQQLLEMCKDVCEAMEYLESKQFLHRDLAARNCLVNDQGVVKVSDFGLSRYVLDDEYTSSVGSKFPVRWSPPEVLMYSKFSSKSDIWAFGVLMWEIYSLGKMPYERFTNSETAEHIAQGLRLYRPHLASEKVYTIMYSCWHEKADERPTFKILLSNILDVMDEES
row,IC50 [nM],Compound
1,< 10,"CCC(=O)N1CCC[C@@H](c2nc(-c3ccc(C(=O)Nc4cc(OC)ccn4)cc3)c3c(N)nccn23)C1 [Example 372, 4-{8-amino-3-[(3R)-1-propanoylpiperidin-3-yl]imidazo[1,5-a]pyrazin-1-yl}-N-(4-methoxypyridin-2-yl)benzamide]"
2,< 10,"Nc1nccn2c([C@@H]3CCCN(C(=O)NC4CC4)C3)nc(-c3ccc(C(=O)Nc4cc(C(F)(F)F)ccn4)cc3F)c12 [Example 489, (3R)-3-[8-amino-1-(2-fluoro-4-{[4-(trifluoromethyl)pyridin-2-yl]carbamoyl}phenyl)imidazo[1,5-a]pyrazin-3-yl]-N-cyclopropylpiperidine-1-carboxamide]"
3,< 10,"CCc1ccnc(NC(=O)c2ccc(-c3nc([C@@H]4CCCN(C(=O)C5(C)COC5)C4)n4ccnc(N)c34)cc2)c1 [Example 362, 4-(8-amino-3-{(3R)-1-[(3-methyloxetan-3-yl)carbonyl]piperidin-3-yl}imidazo[1,5-a]pyrazin-1-yl)-N-(4-ethylpyridin-2-yl)benzamide]"
4,< 10,"Nc1nccn2c([C@@H]3CCCN(C(=O)c4cnsc4)C3)nc(-c3ccc(C(=O)Nc4cc(C(F)(F)F)ccn4)cc3)c12 [Example 333, 4-{8-amino-3-[(3R)-1-(isothiazol-4-ylcarbonyl)piperidin-3-yl]imidazo[1,5-a]pyrazin-1-yl}-N-[4-(trifluoromethyl)pyridin-2-yl]benzamide]"
5,< 10,"C[C@H]1CC[C@@H](c2nc(-c3ccc(C(=O)Nc4cc(C(F)(F)F)ccn4)c(F)c3)c3c(N)nccn23)CN1C(=O)C1(C)COC1 [Example 476, 4-(8-amino-3-{(3R,6S)-6-methyl-1-[(3-methyloxetan-3-yl)carbonyl]piperidin-3-yl}imidazo[1,5-a]pyrazin-1-yl)-2-fluoro-N-[4-(trifluoromethyl)pyridin-2-yl]benzamide]"
6,< 10,"Cn1ncc2c1CCC[C@@H]2n1nc(-c2ccc(C(=O)Nc3cc(C(F)(F)F)ccn3)cc2)c2c(N)ncnc21 [Example 553, 4-{4-amino-1-[(4S)-1-methyl-4,5,6,7-tetrahydro-1H-indazol-4-yl]-1H-pyrazolo[3,4-d]pyrimidin-3-yl}-N-[4-(trifluoromethyl)pyridin-2-yl]benzamide, TFA salt]"
7,< 10,"CC(C)N1CC(C(=O)N2CCC[C@@H](c3nc(-c4ccc(C(=O)Nc5cc(C(F)(F)F)ccn5)cc4)c4c(N)nccn34)C2)C1 [Example 329, 4-{8-amino-3-[(3R)-1-{[1-(1-methylethyl)azetidin-3-yl]carbonyl}piperidin-3-yl]imidazo[1,5-a]pyrazin-1-yl}-N-[4-(trifluoromethyl)pyridin-2-yl]benzamide]"
8,< 10,"Nc1ncnc2c1c(-c1ccc(C(=O)Nc3cc(C(F)(F)F)ccn3)cc1)nn2[C@@H]1CCCc2c1cnn2CCO [Example 561, 4-{4-amino-1-[(4R)-1-(2-hydroxyethyl)-4,5,6,7-tetrahydro-1H-indazol-4-yl]-1H-pyrazolo[3,4-d]pyrimidin-3-yl}-N-[4-(trifluoromethyl)pyridin-2-yl]benzamide, TFA salt]"
9,< 10,"Nc1ncnc2c1c(-c1ccc(C(=O)Nc3cc(C(F)(F)F)ccn3)cc1)nn2[C@@H]1CCCc2nn(CCO)cc21 [Example 562, 4-{4-amino-1-[(4R)-2-(2-hydroxyethyl)-4,5,6,7-tetrahydro-2H-indazol-4-yl]-1H-pyrazolo[3,4-d]pyrimidin-3-yl}-N-[4-(trifluoromethyl)pyridin-2-yl]benzamide, TFA salt]"
10,10 to 100,"COc1ccc(NC(=O)c2ccc(-c3nc([C@@H]4CCCN(C(=O)C5(C)COC5)C4)n4ccnc(N)c34)cc2)nc1 [Example 325, (R)-4-(8-amino-3-(1-(3-methyloxetane-3-carbonyl)piperidin-3-yl)imidazo[1,5-a]pyrazin-1-yl)-N-(5-methoxypyridin-2-yl)benzamide]"
11,< 10,"COCC(=O)N1CCO[C@@H](c2nc(-c3ccc(C(=O)Nc4cc(C(F)(F)F)ccn4)cc3)c3c(N)ncc(C)n23)C1 [Example 536, 4-{8-amino-3-[(2R)-4-(methoxyacetyl)morpholin-2-yl]-5-methylimidazo[1,5-a]pyrazin-1-yl}-N-[4-(trifluoromethyl)pyridin-2-yl]benzamide, TFA salt]"
12,< 10,"CN1C[C@@H](c2nc(-c3ccc(C(=O)Nc4cc(C(F)(F)F)ccn4)cc3F)c3c(N)nccn23)CC[C@@H]1C(F)(F)F [Example 411, 4-{8-amino-3-[(3S,6R)-1-methyl-6-(trifluoromethyl)piperidin-3-yl]imidazo[1,5-a]pyrazin-1-yl}-3-fluoro-N-[4-(trifluoromethyl)pyridin-2-yl]benzamide]"
13,< 10,"CC1(CN2CCC[C@@H](c3nc(-c4ccc(C(=O)Nc5cc(C(F)(F)F)ccn5)cc4)c4c(N)nccn34)C2)COC1 [Example 338, 4-(8-amino-3-{(3R)-[(3-methyloxetan-3-yl)methyl]piperidin-3-yl}imidazo[1,5-a]pyrazin-1-yl)-N-[4-(trifluoromethyl)pyridin-2-yl]benzamide]"
14,< 10,"Cc1ccc(NC(=O)c2ccc(-c3nc([C@@H]4CCCN(C(=O)C5(C)COC5)C4)n4ccnc(N)c34)cc2)nc1 [Example 356, 4-(8-amino-3-{(3R)-1-[(3-methyloxetan-3-yl)carbonyl]piperidin-3-yl}imidazo[1,5-a]pyrazin-1-yl)-N-(5-methylpyridin-2-yl)benzamide]"
15,< 10,"CS(=O)(=O)CC(=O)N1CCO[C@@H](c2nc(-c3ccc(C(=O)Nc4cc(C(F)(F)F)ccn4)cc3)c3c(N)nccn23)C1 [Example 545, 4-(8-amino-3-{(2R)-4-[(methylsulfonyl)acetyl]morpholin-2-yl}imidazo[1,5-a]pyrazin-1-yl)-N-[4-(trifluoromethyl)pyridin-2-yl]benzamide]"
16,10 to 100,"Nc1nccn2c([C@@H]3CN[C@H](CO)CO3)nc(-c3ccc(C(=O)Nc4cc(C(F)(F)F)ccn4)cc3)c12 [Example 547, 4-{8-amino-3-[(2S,5R)-5-(hydroxymethyl)morpholin-2-yl]imidazo[1,5-a]pyrazin-1-yl}-N-[4-(trifluoromethyl)pyridin-2-yl]benzamide, TFA salt]"
17,< 10,"C[C@H](O)C(=O)N1CCO[C@@H](c2nc(-c3ccc(C(=O)Nc4cc(C(F)(F)F)ccn4)cc3)c3c(N)ncc(Cl)n23)C1 [Example 523, 4-(8-amino-5-chloro-3-{(2R)-4-[(2S)-2-hydroxypropanoyl]morpholin-2-yl}imidazo[1,5-a]pyrazin-1-yl)-N-[4-(trifluoromethyl)pyridin-2-yl]benzamide]"
18,< 10,"Nc1nccn2c([C@@H]3CCCN(C(=O)c4cnccn4)C3)nc(-c3ccc(C(=O)Nc4cc(C(F)(F)F)ccn4)cc3)c12 [Example 336, 4-{8-amino-3-[(3R)-1-(pyrazin-2-ylcarbonyl)piperidin-3-yl]imidazo[1,5-a]pyrazin-1-yl}-N-[4-(trifluoromethyl)pyridin-2-yl]benzamide]"
19,< 10,"Cc1cnc(N)c2c(-c3ccc(C(=O)Nc4cc(C(F)(F)F)ccn4)cc3)nc([C@H]3CN(CCO)CCO3)n12 [Example 540, 4-{8-amino-3-[(2R)-4-(2-hydroxyethyl)morpholin-2-yl]-5-methylimidazo[1,5-a]pyrazin-1-yl}-N-[4-(trifluoromethyl)pyridin-2-yl]benzamide, TFA salt]"
20,< 10,"CC(=O)N1CCC[C@@H](c2nc(-c3ccc(C(=O)Nc4cc(C(F)(F)F)ccn4)cc3)c3c(N)ncc(Cl)n23)C1 [Example 440, 4-{3-[(3R)-1-acetylpiperidin-3-yl]-8-amino-5-chloroimidazo[1,5-a]pyrazin-1-yl}-N-[4-(trifluoromethyl)pyridin-2-yl]benzamide]"
21,< 10,"CC1(C(=O)N2CCC[C@@H](n3nc(-c4ccc(C(=O)Nc5cc(C(F)(F)F)ccn5)cc4)c4c(N)ncc(Cl)c43)C2)COC1 [Example 382, 4-(4-amino-7-chloro-1-{(3R)-1-[(3-methyloxetan-3-yl)carbonyl]piperidin-3-yl}-1H-pyrazolo[4,3-c]pyridin-3-yl)-N-[4-(trifluoromethyl)pyridin-2-yl]benzamide]"
22,< 10,"CCc1ccnc(NC(=O)c2ccc(-c3nc([C@@H]4CCCN(C(=O)C5(C)COC5)C4)n4c(C)cnc(N)c34)cc2)c1 [Example 455, 4-(8-amino-5-methyl-3-{(3R)-1-[(3-methyloxetan-3-yl)carbonyl]piperidin-3-yl}imidazo[1,5-a]pyrazin-1-yl)-N-(4-ethylpyridin-2-yl)benzamide]"
23,< 10,"C[C@H]1CC[C@@H](c2nc(-c3ccc(C(=O)Nc4cc(C(F)(F)F)ccn4)c(Cl)c3)c3c(N)nccn23)CN1C(=O)C1(C)COC1 [Example 400, 4-(8-amino-3-{(3R,6S)-6-methyl-1-[(3-methyloxetan-3-yl)carbonyl]piperidin-3-yl}imidazo[1,5-a]pyrazin-1-yl)-2-chloro-N-[4-(trifluoromethyl)pyridin-2-yl]benzamide]"
24,< 10,"COc1ccnc(NC(=O)c2ccc(-c3nn([C@@H]4CCCN(C(=O)C5(C)COC5)C4)c4ccnc(N)c34)cc2)c1 [Example 388, 4-(4-amino-1-{(3R)-1-[(3-methyloxetan-3-yl)carbonyl]piperidin-3-yl}-1H-pyrazolo[4,3-c]pyridin-3-yl)-N-(4-methoxypyridin-2-yl)benzamide]"
25,< 10,"CC1(C(=O)N2CCC[C@@H](c3nc(-c4ccc(C(=O)Nc5ccc(C(F)F)cn5)cc4)c4c(N)nccn34)C2)COC1 [Example 355, 4-(8-amino-3-{(3R)-1-[(3-methyloxetan-3-yl)carbonyl]piperidin-3-yl}imidazo[1,5-a]pyrazin-1-yl)-N-[5-(difluoromethyl)pyridin-2-yl]benzamide]"
26,< 10,"CN1C[C@@H](c2nc(-c3ccc(C(=O)Nc4cc(C(F)(F)F)ccn4)cc3)c3c(N)nccn23)CC[C@H]1C(F)(F)F [Example 414, 4-{8-amino-3-[(3S,6S)-1-methyl-6-(trifluoromethyl)piperidin-3-yl]imidazo[1,5-a]pyrazin-1-yl}-N-[4-(trifluoromethyl)pyridin-2-yl]benzamide]"

# Same assay, conditions: Table D; Assay Method C (LANCE TR-FRET), 50 pM hBTK, 25 μM ATP; read-out: IC50 BTK activity value
row,IC50 [nM],Compound
1,0.322,"C[C@H]1CC[C@@H](c2nc(-c3ccc(C(=O)Nc4cc(C(F)(F)F)ccn4)c(F)c3)c3c(N)nccn23)CN1C(=O)C1(C)COC1 [Example 476, 4-(8-amino-3-{(3R,6S)-6-methyl-1-[(3-methyloxetan-3-yl)carbonyl]piperidin-3-yl}imidazo[1,5-a]pyrazin-1-yl)-2-fluoro-N-[4-(trifluoromethyl)pyridin-2-yl]benzamide]"
2,0.96,"C[C@H]1CC[C@@H](c2nc(-c3ccc(C(=O)Nc4cc(C(F)(F)F)ccn4)c(Cl)c3)c3c(N)nccn23)CN1C(=O)C1(C)COC1 [Example 400, 4-(8-amino-3-{(3R,6S)-6-methyl-1-[(3-methyloxetan-3-yl)carbonyl]piperidin-3-yl}imidazo[1,5-a]pyrazin-1-yl)-2-chloro-N-[4-(trifluoromethyl)pyridin-2-yl]benzamide]"
3,1.33,"CC1(C(=O)N2CCC[C@@H](c3nc(-c4ccc(C(=O)Nc5ccc(C(F)F)cn5)cc4)c4c(N)nccn34)C2)COC1 [Example 355, 4-(8-amino-3-{(3R)-1-[(3-methyloxetan-3-yl)carbonyl]piperidin-3-yl}imidazo[1,5-a]pyrazin-1-yl)-N-[5-(difluoromethyl)pyridin-2-yl]benzamide]"
